The test system of one assay is MIA model of pain. Description: Monosodium iodoacetate (MIA) model of pain. The format is in vivo, rat. The conditions noted are these: rats, dose of 0.1 mg/kg, dosed once on day 9 post MIA, measured 2 h post dosing. An excerpt:
The injection of monoiodoacetic acid (MIA) into the knee joint of rats produces an acute inflammatory insult, which then develops into chronic degeneration of the joint tissues in the injected joint. The pain resulting from the joint injury can be measured via differential weight bearing of the hind legs using an incapacitance tester. […] Efficacy is routinely measured by the ability of a compound to partially normalize weight distribution. The maximal efficacy that can be achieved in the standard MIA is dependent on the mechanism being studied; however, for many mechanisms the maximal efficacy achieved results in a 25%-50% reduction in the weight bearing differential.
Use Male Lewis rats approximately 150-170 g and between 6-8 weeks of age. Let the animals acclimate to the environment for at least 72 h. […]
Incapacitance Tester Readings—Incapacitance Testers (Columbus Instruments International, Columbus, Ohio) for weight bearing measurements. […] A total of three one second readings are taken to reflect the amount of pressure exerted on both the left and right hind paw while the rat is positioned in the chamber. The force exerted by each hind paw is measured in grams and calculated as the left hind paw weight distribution-right hind paw weight distribution. Thus, the final paw weight distribution for each animal is an average of the three one second readings. […]

For the next assay, the target named is T1, RARγ (Homo sapiens, UniProt P13631).
T1 construct: made in house; host or cells: baculovirus expression system
T1 sequence (P13631 1-454): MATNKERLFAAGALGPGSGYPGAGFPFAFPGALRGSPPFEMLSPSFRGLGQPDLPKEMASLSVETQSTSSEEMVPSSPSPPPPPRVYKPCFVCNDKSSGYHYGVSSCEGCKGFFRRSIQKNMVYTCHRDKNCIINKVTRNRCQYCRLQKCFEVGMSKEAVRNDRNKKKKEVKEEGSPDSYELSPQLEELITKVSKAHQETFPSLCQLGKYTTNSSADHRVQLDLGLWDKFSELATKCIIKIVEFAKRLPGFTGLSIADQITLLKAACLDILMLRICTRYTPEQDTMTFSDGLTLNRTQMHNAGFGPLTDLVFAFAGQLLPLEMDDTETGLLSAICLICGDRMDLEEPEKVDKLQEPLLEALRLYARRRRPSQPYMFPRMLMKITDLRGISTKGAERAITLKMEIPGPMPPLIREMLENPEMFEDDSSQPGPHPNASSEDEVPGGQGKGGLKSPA
T1 sequence (P19793 1-462 partner): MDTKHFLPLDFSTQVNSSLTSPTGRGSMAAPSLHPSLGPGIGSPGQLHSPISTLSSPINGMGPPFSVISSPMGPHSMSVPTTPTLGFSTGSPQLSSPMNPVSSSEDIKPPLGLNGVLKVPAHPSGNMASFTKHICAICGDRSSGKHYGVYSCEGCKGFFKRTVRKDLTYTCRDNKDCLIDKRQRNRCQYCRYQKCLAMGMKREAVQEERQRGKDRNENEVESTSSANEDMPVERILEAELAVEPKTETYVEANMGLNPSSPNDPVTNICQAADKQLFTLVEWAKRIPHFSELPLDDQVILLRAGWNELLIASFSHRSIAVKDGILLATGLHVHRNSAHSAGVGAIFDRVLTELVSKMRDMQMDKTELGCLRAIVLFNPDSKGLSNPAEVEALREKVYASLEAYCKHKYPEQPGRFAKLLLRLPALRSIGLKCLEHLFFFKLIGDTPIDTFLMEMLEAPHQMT
Description: RARγ binding assay (SPA, 3H-TTNPB competition). The conditions noted are these: RARγ/RXRα heterodimer. An excerpt:
Compounds can be evaluated for binding to RARα, β and γ by measuring their ability to competitively bind to the RAR receptors when dimerized with the binding partner RXRα. Competitive binding assays may be carried out by Scintillation Proximity Assay (SPA) technology using the RARα, β or γ heterodimer (with RXRα as a partner with all the RARs) receptors prepared in a baculovirus expression system. Use the biotinylated oligonucleotide: 5′-[…]-3′ for binding of receptor to yttrium silicate streptavidin-coated SPA beads. Per well, preincubate […] with 82.7 μg SPA beads in a binding buffer containing 10 mM HEPES pH 7.8, 80 mM KCl, 0.5 mM MgCl2, 1 mM DTT, 0.5% CHAPS and 16.6 μg bovine serum albumin for 30 min at room temperature. Then spin the mixture at 2,000 rpm for 3 min to pelletize the beads-oligo mix. Remove the supernatant and resuspend the beads-oligo pellet in the same binding buffer as above, but which in addition now also contain 14% glycerol, 5 μg of sheared salmon sperm DNA, 0.5 μg of RARα, 1.0 μg of RARβ, or 0.25 μg of RARγ receptor, respectively. Carry out the binding assays in the presence of ˜11.3 μCi of ^3H 4-[(E)-2-(5,6,7,8-tetrahydro-5,5,8,8-tetramethyl-2-naphthalenyl)-1-propenyl]benzoic acid (TTNPB), and multiple concentrations of test compound ranging from (5 nM to 10 μM). Non-specific binding may be determined in the presence of 1 μM unlabeled TTNPB. Use the data to calculate an IC50 for compounds after fitting the dose-response curves to a 4-parameter logistic fit. Use the Cheng-Prusoff equation to convert IC50 (nM) values for compounds to Ki, and the Kd may be determined by saturation binding.

As to `CN1CCN(C(=O)c2ccc(-n3nc(-c4ccc(C(=O)O)cc4)cc3-c3cc(C(C)(C)C)cc(C(C)(C)C)c3)cc2)CC1` [Example 1, 4-[5-(3,5-Di-tert-butylphenyl)-1-[4-(4-methylpiperazine-1-carbonyl)phenyl]pyrazol-3-yl]benzoic Acid], in the assay with MIA model of pain, the “inhibition of pain (hind paw weight bearing differential) compared to vehicle” value is given as “significantly inhibits pain”. For the same compound, on RARγ, the affinity, expressed as Ki, was 1.69 nM. For the compound `CC(C)(C)c1cc(-c2cc(-c3ccc(C(=O)O)cc3)nn2-c2ccc(C(=O)N3CCOCC3)cc2)cc(C(C)(C)C)n1` [Example 8, 4-[5-(2,6-Di-tert-butyl-4-pyridyl)-1-[4-(morpholine-4-carbonyl)phenyl]pyrazol-3-yl]benzoic acid], the Ki – broadly, the dissociation constant of the complex between target and ligand, obtained from inhibition or displacement – on RARγ amounted to 1.58 nM.

The compound `CC(C)Sc1cc(-c2cc(-c3ccc(C(=O)O)cc3)nn2-c2ccc(C(=O)N(C)C)cc2)cc(C(C)(C)C)c1` [Example 12, 4-[5-(3-tert-Butyl-5-isopropylsulfanyl-phenyl)-1-[4-(dimethylcarbamoyl)phenyl]pyrazol-3-yl]benzoic Acid] registered an inhibition constant (Ki) at RARγ of 3.06 nM. The compound `CC(C)(C)c1cc(-c2cc(-c3ccc(C(=O)O)cc3)nn2-c2ccc(S(C)(=O)=O)cc2)cc(C(C)(C)C)c1` [Example 19, 4-[5-(3,5-Di-tert-butylphenyl)-1-(4-methylsulfonylphenyl)pyrazol-3-yl]benzoic Acid] registered a Ki at RARγ of 2.76 nM.
